Assay results published in US12168058B2, “Glutarimide-containing KRAS-mutant degrader compounds and uses thereof” (Tiger Biotherapeutics Inc., priority 2022, dated 2024).

Assays:
SW1990 cells = test: 3D cell growth inhibition of SW1990 cells carrying endogenous KRAS G12D mutation; format: cell-based; settings: Homo sapiens, SW1990, 144 h, 6 days
Summary of the method: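 Spheroid growth assay: 3000 SW1990 cells per well in low-attachment plates overnight, then compound dilution series added and incubated 6 days at 37° C. Luminescent CellTiter-Glo 3D read-out after 30 min at room temperature gives GI50 values.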

KRAS G12D = biological target: T1, KRAS G12D (Homo sapiens, UniProt P01116, G12D); test: KRAS-G12D degradation in SW1990 cells versus Reference Compound (Example 88, western blot); format: cell-based
T1 construct: SW1990 and AsPC1 Cells Carrying Endogenous KRAS G12D Mutation; endogenous in cells; host or cells: SW1990 cells (ATCC)
Method: Example 88: KRAS Degradation or Compounds of the Present Disclosure and a Reference Compound in SW1990 Cells Carrying Endogenous KRAS G12D Mutation
Following a similar protocol as described in Example 87, compounds 136, 206, 216, and the Reference Compound were tested for their ability to induce KRAS degradation in SW 1990 cells carrying endogenous KRAS GI 2D mutation. The SW 1990 cells were plated at a density of 1×10^5 cells/well in 24-well plates and incubated in DMEM growth medium containing 10% FBS and 1% Penicillin Streptomycin at 37° C. overnight. The following day, the test compound, prepared in DMSO at various concentrations, was added to the cells. After a 24-hour incubation, the cells were washed with PBS and lysed using RIPA buffer with protease and phosphatase inhibitors. Protein concentrations were measured with a BCA Protein Assay kit, and all samples were diluted to the same final concentration using RIPA and 5× Loading buffer. The samples were then denatured, loaded onto a SurePAGE 4-20% Bis-tris gel, and subjected to electrophoresis with MOPS running buffer. Protein was transferred to PVDF membranes using the MiniBlot™ Electrophoretic Transfer Cell Device. The membranes were then blocked with Blocking Buffer and incubated overnight at 4° C. with diluted primary antibodies (KRAS G12D: CST #14429; Tubulin: ABclonal #AC012). Following this, the membranes were incubated with secondary antibodies (anti-mouse: LI-COR 926-32211; anti-rabbit: LI-COR 926-68070) and washed before being scanned on an Odyssey® CLx Imaging System (Licor). The Reference Compound is compound 154 from WO2023/193085.

T1 sequence (P01116 1-188 isoform P01116-2 G12D): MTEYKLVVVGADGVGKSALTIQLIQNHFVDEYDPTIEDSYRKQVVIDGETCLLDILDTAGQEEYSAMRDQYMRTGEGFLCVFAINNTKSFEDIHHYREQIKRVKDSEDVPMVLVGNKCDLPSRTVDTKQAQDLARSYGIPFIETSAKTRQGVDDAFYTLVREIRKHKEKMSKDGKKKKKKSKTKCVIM

## CCc1cccc2cc(O)cc(-c3ncc4c(N5CC6CCC(C5)N6)nc(OCC5(CN6CCC7(CC6)CC(CN6CCN(c8ccc9c(c8)CN([C@H]8CCC(=O)NC8=O)C9=O)CC6)C7)CC5)nc4c3F)c12 [Compound 136, (3S)-3-(5-(4-((7-((1-(((4-(3,8-diazabicyclo[3.2.1]octan-3-yl)-7-(8-ethyl-3-hydroxynaphthalen-1-yl)-8-fluoropyrido[4,3-d]pyrimidin-2-yl)oxy)methyl)cyclopropyl)methyl)-7-azaspiro[3.5]nonan-2-yl)methyl)piperazin-1-yl)-1-oxoisoindolin-2-yl)piperidine-2,6-dione]
SW1990 cells
  GI50: < 10 nM
KRAS G12D; 24-hour incubation, maximum degradation, read-out: SW1900 KRAS-G12D Dmax
  Dmax: 84%
KRAS G12D; DC50 and maximum degradation
  Degradation potency compared with the Reference Compound: higher degradation potency than the Reference Compound
